Source: article PMC11944884, “Bioactive Secondary Metabolites of Two Chinese Edible Boletes, Phlebopus portentosus and Butyriboletus roseoflavus” (Molecules, 2025)

What was measured:
[1] = tested on: Hela229, SGC7901, PC-3, BEL7402, and MCF-7/ADR; assay: Cytotoxicity CCK-8 assay, small panel of human cancer cell lines (summary statements); assay type: cell-based; conditions: over the panel Hela229, SGC7901, PC-3, BEL7402, MCF-7/ADR, read-out: IC50
MCF-7/ADR = assay: Cytotoxicity CCK-8 assay, MCF-7/ADR; assay type: cell-based; conditions: Homo sapiens, NCI/ADR-RES
SGC7901 = assay: Cytotoxicity CCK-8 assay, SGC7901; assay type: cell-based; conditions: Homo sapiens, SGC-7901; for IC50: SGC7901
BEL7402 = assay: Cytotoxicity CCK-8 assay, BEL7402; assay type: cell-based; conditions: Homo sapiens, Bel-7402; for IC50: BEL7402
Hela229 = assay: Cytotoxicity CCK-8 assay, Hela229; assay type: cell-based; conditions: Homo sapiens, HeLa 229; for IC50: Hela229
PC-3 = assay: Cytotoxicity CCK-8 assay, PC-3; assay type: cell-based; conditions: Homo sapiens; for IC50: PC-3
[2] = tested on: A/H3N2 and B/Victoria strains; assay: microbe, parasite or virus in culture; assay type: cell-based; conditions: Influenza A virus, range over compounds 22 and 26 and both strains
[3] = tested on: influenza virus B/Victoria strain; assay: microbe, parasite or virus in culture; assay type: cell-based; conditions: MDCK
influenza virus A/H3N2 = assay: microbe, parasite or virus in culture; assay type: cell-based, influenza virus A (H3N2 strain)
SH-SY5Y cells = assay: Neuroprotection against Aβ25−35-induced neurotoxicity (MTT); conditions: 10 μM compound, 10 μM Aβ25-35, mean ± SEM
Procedure: The cells, obtained from the American Type Culture Collection (ATCC, Manassas, VA, USA) at high passages, maintained at 37 °C in a humidified atmosphere containing 5% CO2. Cells were seeded into 96-well plates at a density of 2 × 10^5 cells/mL in MEM/F12 medium supplemented with 10% (v/v) fetal bovine serum. Experiments were carried out after 24 h of seeding. Test compounds and positive control (epigallocatechin-3-gallate, EGCG; NAC) were made to 10^−2 M stock solutions with DMSO and then diluted to corresponding concentrations with cell culture medium. Cells were incubated with test compounds or EGCG (10 μM, Sigma, St. Louis, MO, USA, purity > 98%)/NAC for 2 h, followed by exposure to 80 μM H2O2 or 10 μM Aβ25−35 for another 24 h without medium replacement. After treatment, 10 μL of MTT (5 mg/mL) was added to each well and incubated at 37 °C for 3 h. The cells were finally lysed with 100% DMSO, and the absorbance of MTT formazan was measured at 490 nm using a microplate reader.

coxsackievirus B3 = assay: Anti-coxsackievirus assay (CPE / MTT) in Vero cells; assay type: cell-based
[4] = 48 h, read-out: Cell proliferation inhibition (%)
[5] = Influenza A virus, H3N2, MDCK, read-out: CPE inhibition

## COc1cccc2c1C(=O)c1c(O)c3c(c(O)c1C2=O)C[C@@](O)(C(=O)CO)C[C@@H]3O[C@H]1C[C@H](N)[C@H](O)[C@H](C)O1 [Doxorubicin, reference compound]
[1]
  IC50: 0.75 to 35.2 µM
MCF-7/ADR
  IC50: 35.2 µM
MCF-7/ADR; [4]
  inhibition at 6.25 µM: 46.5%
  inhibition at 12.5 µM: 44.2%
  inhibition at 50 µM: 52.7%
  inhibition at 100 µM: 52.8%
SGC7901
  IC50: 0.8 µM
BEL7402
  IC50: 1.59 µM
Hela229
  IC50: 0.75 µM
PC-3
  IC50: 1.78 µM

## CC(C)[C@@H](C)/C=C/[C@@H](C)[C@H]1CC[C@H]2C3=C[C@@H](O)[C@@]4(O)C[C@@H](O)CC[C@]4(C)[C@H]3CC[C@]12C [Compound 22, cerevisterol]
[2]
  EC50: 3.6 to 9.6 µM
[3]
  EC50: 6.6 µM
  IC50: 6.6 µM
[3]; read-out: CPE inhibition
  inhibition at 1.56 µM: 0%
  inhibition at 3.13 µM: 0%
  inhibition at 6.25 µM: 10%
  inhibition at 12.5 µM: 75%
  inhibition at 25 µM: 75%
Influenza virus A/H3N2; Influenza A virus, H3N2, MDCK
  IC50: 9.6 µM
Influenza virus A/H3N2; [5]
  inhibition at 1.56 µM: 0%
  inhibition at 3.13 µM: 0%
  inhibition at 6.25 µM: 0%
  inhibition at 12.5 µM: 75%
  inhibition at 25 µM: 75%
Influenza virus A/H3N2; MDCK
  EC50: 9.6 µM

## O=C1NCCc2c1[nH]c1ccccc21 [Compound 9, 1,2,3,4-tetrahydro-1-oxo-β-carboline]
MCF-7/ADR
  IC50: > 50 µM
MCF-7/ADR; [4]
  inhibition at 6.25 µM: -0.9%
  inhibition at 12.5 µM: 1.7%
  inhibition at 50 µM: 2.9%
  inhibition at 100 µM: 2.5%
MCF-7/ADR; 25 μM, 48 h, read-out: Cell proliferation inhibition (%)
  inhibition at 25 µM: 3.4%
SGC7901
  IC50: > 50 µM
SGC7901; SGC7901, 6.25 μM, 48 h, read-out: Cell proliferation inhibition (%)
  inhibition at 6.25 µM: 13.2%
SGC7901; SGC7901, 12.5 μM, 48 h, read-out: Cell proliferation inhibition (%)
  inhibition at 12.5 µM: 17.5%
SGC7901; SGC7901, 25 μM, 48 h, read-out: Cell proliferation inhibition (%)
  inhibition at 25 µM: 27.1%
SGC7901; SGC7901, 50 μM, 48 h, read-out: Cell proliferation inhibition (%)
  inhibition at 50 µM: 37.4%
SGC7901; SGC7901, 100 μM, 48 h, read-out: Cell proliferation inhibition (%)
  inhibition at 100 µM: 44.3%
BEL7402
  IC50: 41.5 µM
BEL7402; BEL7402, 6.25 μM, 48 h, read-out: Cell proliferation inhibition (%)
  inhibition at 6.25 µM: 12.5%
BEL7402; BEL7402, 12.5 μM, 48 h, read-out: Cell proliferation inhibition (%)
  inhibition at 12.5 µM: 24.4%
BEL7402; BEL7402, 25 μM, 48 h, read-out: Cell proliferation inhibition (%)
  inhibition at 25 µM: 44.4%
BEL7402; BEL7402, 50 μM, 48 h, read-out: Cell proliferation inhibition (%)
  inhibition at 50 µM: 56.4%
BEL7402; BEL7402, 100 μM, 48 h, read-out: Cell proliferation inhibition (%)
  inhibition at 100 µM: 63.6%
Hela229
  IC50: 10.8 µM
Hela229; Hela229, 6.25 μM, 48 h, read-out: Cell proliferation inhibition (%)
  inhibition at 6.25 µM: 37.1%
Hela229; Hela229, 12.5 μM, 48 h, read-out: Cell proliferation inhibition (%)
  inhibition at 12.5 µM: 53.7%
Hela229; Hela229, 25 μM, 48 h, read-out: Cell proliferation inhibition (%)
  inhibition at 25 µM: 68.7%
Hela229; Hela229, 50 μM, 48 h, read-out: Cell proliferation inhibition (%)
  inhibition at 50 µM: 83.3%
Hela229; Hela229, 100 μM, 48 h, read-out: Cell proliferation inhibition (%)
  inhibition at 100 µM: 88%
PC-3
  IC50: > 50 µM
PC-3; PC-3, 6.25 μM, 48 h, read-out: Cell proliferation inhibition (%)
  inhibition at 6.25 µM: 3%
PC-3; PC-3, 12.5 μM, 48 h, read-out: Cell proliferation inhibition (%)
  inhibition at 12.5 µM: 1.7%
PC-3; PC-3, 25 μM, 48 h, read-out: Cell proliferation inhibition (%)
  inhibition at 25 µM: 4%
PC-3; PC-3, 50 μM, 48 h, read-out: Cell proliferation inhibition (%)
  inhibition at 50 µM: 2.6%
PC-3; PC-3, 100 μM, 48 h, read-out: Cell proliferation inhibition (%)
  inhibition at 100 µM: 14%

## epigallocatechin-3-gallate [EGCG, reference compound]
SH-SY5Y cells
  Cell viability (% of control group): 104.80%

## CC(C)[C@@H](C)/C=C/[C@@H](C)[C@H]1CC[C@H]2C3=C(CC[C@]12C)[C@@]1(C)CC[C@H](O)C[C@@]12O[C@H]2C3=O [Compound 29, (22E,24R)-5α,6α-epoxy-3β-hydroxy-ergosta-8,22-dien-7-one]
Coxsackievirus B3
  antiviral effect against coxsackievirus B3: moderate antiviral effect
Coxsackievirus B3; 100 μg/mL, CVB-infected Vero cells
  increased cell survival: 35.4%
Coxsackievirus B3; 100 μg/mL, microscope
  cytopathic morphology of Vero cells infected with coxsackievirus B3: reversed the cytopathic morphology
